Results taken from patent US12024506B2, “Compounds” (Oxford University Innovation Limited, priority 2018, dated 2024).

What was measured:
[1] = system: H358 cells (ATCC CRL-5807); assay: Cell viability assay 1 (CellTiter-Glo), H358 cells; assay type: cell-based; details: Homo sapiens, NCI-H358, 48 h, first value of the cell, read-out: Cell Viability H358 (concentration that decreases cell viability by 50%)
In short: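 H358 cells were grown in RPMI-1640 with 10% FCS and 2 mM L-glutamine, plated at 5000 cells/well and allowed to adhere overnight. Compound was added in 0.5% DMSO final for 48 h at 37° C. Viability was read by CellTiter-Glo luminescence, with the 50% viability-reducing concentration derived from dose-response curves.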

[2] = target: T1, GST-human KRas166 (G12V) GPPNHP (Homo sapiens, UniProt P01116, G12V); assay: KRas small-molecule screening by SPR (Biacore T200); assay type: binding; details: compound 100 uM, 5% DMSO buffer; immobilised GST-KRas166 (G12V) GPPNHP
T1 construct: made in house; host or cells: E. coli C41(DE3)
In short: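 Biacore T200 screen: compounds at 100 uM final in 5% DMSO buffer (100 mM NaCl, 5 mM MgCl2) over GPPNHP-bound GST-KRas166 G12V captured by anti-GST antibody (10,000–15,000 RU) versus GST-only channel. Expected 1:1 Rmax 63 RU; DMSO solvent correction applied.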

[3] = system: DLD1 cells (ATCC CCL-221); assay: Cell viability assay 1 (CellTiter-Glo), DLD1 cells; assay type: cell-based; details: Homo sapiens, DLD-1 cells, 48 h, second value of the cell, read-out: Cell Viability DLD-1 (concentration that decreases cell viability by 50%)
In short: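 DLD1 cells grown in RPMI-1640 with 10% FCS, 2 mM L-glutamine, 37 °C, 5% CO2, plated overnight then exposed to compound (0.5% DMSO) for 48 h. Viability by CellTiter-Glo luminescence; value is concentration reducing viability by 50% from dose-response curves.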

Structure (SMILES) | IC50 [1] | SPR Response Units [2] | IC50 [3]
COc1nc(-c2cccc3c2OCCO3)ccc1Nc1cccc(CNCC2CCN(Cc3ccccc3)CC2)c1 [Example 190, (3-{[(1-Benzyl-piperidin-4-ylmethyl)-amino]-methyl}-phenyl)-[6-(2,3-dihydro-benzo[1,4]dioxin-5-yl)-2-methoxy-pyridin-3-yl]-amine] | 8.6 µM | 665 Response Units | 1.6 µM
COc1nc(-c2cccc3c2OCCO3)ccc1Nc1cccc(CNCC2CCN(C(C)=O)CC2)c1 [Example 191, 1-[4-({3-[6-(2,3-Dihydro-benzo[1,4]dioxin-5-yl)-2-methoxy-pyridin-3-ylamino]-benzylamino}-methyl)-piperidin-1-yl]-ethanone] | 91.8 µM | 327 Response Units | 7.9 µM
COc1nc(-c2cccc3c2OCCO3)ccc1Nc1cccc(CNCC2CCC(=O)N2)c1 (stereo not drawn) [Example 192, 5-({3-[6-(2,3-Dihydro-benzo[1,4]dioxin-5-yl)-2-methoxy-pyridin-3-ylamino]-benzylamino}-methyl)-pyrrolidin-2-one] | > 150 µM | 321 Response Units | 11.4 µM
COc1nc(-c2cccc3c2OCCO3)ccc1Nc1cccc(CNCc2cc[nH]c(=O)c2)c1 [Example 193, 4-({3-[6-(2,3-Dihydro-benzo[1,4]dioxin-5-yl)-2-methoxy-pyridin-3-ylamino]-benzylamino}-methyl)-1H-pyridin-2-one] | 52.5 µM | 388 Response Units | 14.8 µM
COc1nc(-c2cccc3c2OCCO3)ccc1Nc1cccc(CNCC2CCNC(=O)C2)c1 (stereo not drawn) [Example 194, 4-({3-[6-(2,3-Dihydro-benzo[1,4]dioxin-5-yl)-2-methoxy-pyridin-3-ylamino]-benzylamino}-methyl)-piperidin-2-one] | > 150 µM | 359 Response Units | 11.2 µM
COc1nc(-c2cccc3c2OCCO3)ccc1Nc1cccc(CNCC2CCC(=O)NC2)c1 (stereo not drawn) [Example 195, 5-({3-[6-(2,3-Dihydro-benzo[1,4]dioxin-5-yl)-2-methoxy-pyridin-3-ylamino]-benzylamino}-methyl)-piperidin-2-one] | 13 µM | 176 Response Units | 3.8 µM
COc1nc(-c2cccc3c2OCCO3)ccc1Nc1ccc(C(=O)NCC2CCNC(=O)C2)cc1 (stereo not drawn) [Example 196, 4-[6-(2,3-Dihydro-benzo[1,4]dioxin-5-yl)-2-methoxy-pyridin-3-ylamino]-N-(2-oxo-piperidin-4-ylmethyl)-benzamide] | 30.6 µM | 194 Response Units | 7.2 µM
COc1nc(-c2cccc3c2OCCO3)ccc1Nc1ccc(CC(=O)NCC2CCN(C)CC2)cc1 [Example 197, 2-{4-[6-(2,3-Dihydro-benzo[1,4]dioxin-5-yl)-2-methoxy-pyridin-3-ylamino]-phenyl}-N-(1-methyl-piperidin-4-ylmethyl)-acetamide] | > 150 µM | 453 Response Units | 15.9 µM
COc1nc(-c2cccc3c2OCCO3)ccc1Nc1ccc(CC(=O)N2CCN(C)CC2)cc1 [Example 198, 2-{4-[6-(2,3-Dihydro-benzo[1,4]dioxin-5-yl)-2-methoxy-pyridin-3-ylamino]-phenyl}-1-(4-methyl-piperazin-1-yl)-ethanone] | 1.57 µM | 330 Response Units | 21.8 µM
COc1nc(-c2cccc3c2OCCO3)ccc1Nc1ccc(CN2CCN(Cc3cccnc3)CC2)cc1 [Example 199, [6-(2,3-Dihydro-benzo[1,4]dioxin-5-yl)-2-methoxy-pyridin-3-yl]-[4-(4-pyridin-3-ylmethyl-piperazin-1-ylmethyl)-phenyl]-amine] | 24.2 µM | 93 Response Units | 6.5 µM
COc1nc(-c2cccc3c2OCCO3)ccc1Nc1cccc(CN2CCCC(C(N)=O)C2)c1 (stereo not drawn) [Example 200, 1-{3-[6-(2,3-Dihydro-benzo[1,4]dioxin-5-yl)-2-methoxy-pyridin-3-ylamino]-benzyl}-piperidine-3-carboxylic acid amide] | 1.5 µM | 424 Response Units | 8.6 µM
COc1nc(-c2cccc3c2OCCO3)ccc1Nc1ccc(CNCC2CCNC(=O)C2)cc1 (stereo not drawn) [Example 201, 4-({4-[6-(2,3-Dihydro-benzo[1,4]dioxin-5-yl)-2-methoxy-pyridin-3-ylamino]-benzylamino}-methyl)-piperidin-2-one] | 6.8 µM | 209 Response Units | 10.5 µM
COc1nc(-c2cccc3c2OCCO3)ccc1Nc1cccc(CC(=O)NCC2CCN(C)CC2)c1 [Example 202, 2-{3-[6-(2,3-Dihydro-benzo[1,4]dioxin-5-yl)-2-methoxy-pyridin-3-ylamino]-phenyl}-N-(1-methyl-piperidin-4-ylmethyl)-acetamide] | 17.5 µM | 387 Response Units | 10.5 µM
COc1nc(-c2cccc3c2OCCO3)ccc1Nc1cccc(CC(=O)NC2CCN(C)CC2)c1 [Example 203, 2-{3-[6-(2,3-Dihydro-benzo[1,4]dioxin-5-yl)-2-methoxy-pyridin-3-ylamino]-phenyl}-N-(1-methyl-piperidin-4-yl)-acetamide] | 33.7 µM | 339 Response Units | 12.2 µM
COc1nc(-c2cccc3c2OCCO3)ccc1Nc1cccc(CC(=O)N2CCN(C)CC2)c1 [Example 204, 2-{3-[6-(2,3-Dihydro-benzo[1,4]dioxin-5-yl)-2-methoxy-pyridin-3-ylamino]-phenyl}-1-(4-methyl-piperazin-1-yl)-ethanone] | 19.8 µM | 423 Response Units | 17.6 µM
COc1nc(-c2cccc3c2OCCO3)ccc1Nc1cccc(CC(=O)NC2CCNC(=O)C2)c1 (stereo not drawn) [Example 205, 2-{3-[6-(2,3-Dihydro-benzo[1,4]dioxin-5-yl)-2-methoxy-pyridin-3-ylamino]-phenyl}-N-(2-oxo-piperidin-4-yl)-acetamide] | 12.2 µM | 142 Response Units | 51.6 µM
COc1nc(-c2cccc3c2OCCO3)ccc1Nc1cccc(CC(=O)NC2CCC(=O)NC2)c1 (stereo not drawn) [Example 206, 2-{3-[6-(2,3-Dihydro-benzo[1,4]dioxin-5-yl)-2-methoxy-pyridin-3-ylamino]-phenyl}-N-(6-oxo-piperidin-3-yl)-acetamide] | 11 µM | 151 Response Units | 35.9 µM
COc1nc(-c2cccc3c2OCCO3)ccc1Nc1cccc(CN2CCNCC2)c1 [Example 207, [6-(2,3-Dihydro-benzo[1,4]dioxin-5-yl)-2-methoxy-pyridin-3-yl]-(3-piperazin-1-ylmethyl-phenyl)-amine] | 5.8 µM | 1189 Response Units | 22 µM
COc1nc(-c2cccc3c2OCCO3)ccc1Nc1cccc(CN2CCN(Cc3cn[nH]c3)CC2)c1 [Example 208, [6-(2,3-Dihydro-benzo[1,4]dioxin-5-yl)-2-methoxy-pyridin-3-yl]-{3-[4-(1H-pyrazol-4-ylmethyl)-piperazin-1-ylmethyl]-phenyl}-amine] | 17.4 µM | 1266 Response Units | 5.8 µM
COc1nc(-c2cccc3c2OCCO3)ccc1Nc1cccc(CNCc2cc[nH]n2)c1 [Example 209, [6-(2,3-Dihydro-benzo[1,4]dioxin-5-yl)-2-methoxy-pyridin-3-yl]-(3-{[(1H-pyrazol-3-ylmethyl)-amino]-methyl}-phenyl)-amine] | 13.4 µM | 310 Response Units | 14.7 µM
